Tests used:
[1] = system: Radiation induced fibrosarcoma (RIF) tumors; assay: In vivo tumor response (photodynamic therapy, RIF tumors in C3H mice); conditions: for Tumor Response (%): 705 nm, 135 J/cm^2, 24 h post injection
Procedure: Radiation induced fibrosarcoma (RIF) tumors, were implanted subcutanaceously into the axilla of 5-7 week old female C3H mice. When tumors grew to about 5 mm in diameter, the mice were injected with various doses of the photosensitizers. The mice (6 mice per group) were restrained in aluminum holders and each tumor illuminated with 135 J/cm^2 of light from a laser tuned at the longest wavelength absorption maximum of the photosensitizers at 705 nm. The percentage of short term control was recorded daily.
*Six mice/group (RIF tumor). 1.0 μmol/kg. 705 nm, 135J/cm^2 (24 h

[2] = human, in vivo; cited from earlier work
[3] = 1.0 μmol/kg, days 1-2, six mice/group

With CCCCCCCOC(C)c1c(C)c2cc3nc(c4c5[nH]c(cc6nc(cc1[nH]2)C(C)=C6CC)c(C)c5C(=O)N(CCCCCC)C4=O)[C@@H](CCC(=O)OC)[C@@H]3C (stereo partly drawn) [R^1 = heptyl, R^2 = hexyl, heptyl ether analog of N-hexyl purpurin imide] the “Tumor Response (%)” value ([1]; 0.25 μmol, day 7) was 60%, the “Tumor Response (%)” value ([1]; 0.25 μmol, day 14) was 20% and the “Tumor Response (%)” value ([1]; 0.25 μmol, day 21) was 20%. The “Tumor Response (%)” value ([1]; 0.25 μmol, day 30) was 20%, the “Tumor Response (%)” value ([1]; 0.25 μmol, day 90) was 20% and the “Tumor Response (%)” value ([1]; 0.25 μmol, days 1-2) was 100%. The “Tumor Response (%)” value ([1]; 1.0 μmol/kg, day 7) was 100%, the “Tumor Response (%)” value ([1]; 1.0 μmol/kg, day 14) was 100% and the “Tumor Response (%)” value ([1]; 1.0 μmol/kg, day 21) was 100%. The “Tumor Response (%)” value ([1]; 1.0 μmol/kg, day 30) was 100%, the “Tumor Response (%)” value ([1]; 1.0 μmol/kg, day 90) was 83% and the “Tumor Response (%)” value [1, 3] was 100%. For the same molecule, the “effectiveness in this series” value ([1]; dose of 1.0 μmol/kg) was “most effective”.
With CCCCCCOC(C)c1c(C)c2cc3nc(c4c5[nH]c(cc6nc(cc1[nH]2)C(C)=C6CC)c(C)c5C(=O)N(CCC)C4=O)[C@@H](CCC(=O)OC)[C@@H]3C (stereo partly drawn) [R^1 = hexyl, R^2 = propyl] the “Tumor Response (%)” value ([1]; 0.5 μmol, day 7) was 66%, the “Tumor Response (%)” value ([1]; 0.5 μmol, day 14) was 33% and the “Tumor Response (%)” value ([1]; 0.5 μmol, day 21) was 17%. The “Tumor Response (%)” value ([1]; 0.5 μmol, day 30) was 17%, the “Tumor Response (%)” value ([1]; 0.5 μmol, day 90) was 17% and the “Tumor Response (%)” value ([1]; 0.5 μmol, days 1-2) was 100%. The “Tumor Response (%)” value ([1]; 1.0 μmol/kg, day 7) was 83%, the “Tumor Response (%)” value ([1]; 1.0 μmol/kg, day 14) was 83% and the “Tumor Response (%)” value ([1]; 1.0 μmol/kg, day 21) was 50%. The “Tumor Response (%)” value ([1]; 1.0 μmol/kg, day 30) was 33%, the “Tumor Response (%)” value ([1]; 1.0 μmol/kg, day 90) was 33% and the “Tumor Response (%)” value [1, 3] was 100%.
For CCCOC(C)c1c(C)c2cc3nc(c4c5[nH]c(cc6nc(cc1[nH]2)C(C)=C6CC)c(C)c5C(=O)N(CCC)C4=O)[C@@H](CCC(=O)OC)[C@@H]3C (stereo partly drawn) [R^1 = propyl, R^2 = propyl], the “Tumor Response (%)” value ([1]; 1.0 μmol/kg, day 7) was 33%, the “Tumor Response (%)” value ([1]; 1.0 μmol/kg, day 14) was 17% and the “Tumor Response (%)” value [1, 3] was 100%.
For Photofrin, the normal tissue clearance [2] is listed as “lacks rapid normal tissue clearance” and the skin photosensitization [2] is listed as “photosensitizes the skin”.
